The source of these data is the NIST ThermoML archive (doi:10.1021/acs.jced.5b00992).

± gives the expanded uncertainty stated by the source.

The nature of data set [1]: wn = mass fraction of the nth substance listed. As to conditions: 313.15 K, 88.4 kPa, Liquid; for viscosity: Capillary tube (Ostwald / Ubbelohde) method; for mass density: Pycnometric method.
Data set [2] can be described thus: refractive index (Na D-line) (dimensionless); wn = mass fraction of the nth substance listed. Particulars: 313.15 K, 88.4 kPa, Liquid, Standard Abbe refractometry.

As usually defined, the viscosity is the internal friction of a fluid under shear. Broadly, the mass density is mass per unit of volume. For orientation: refractive index means the speed of light in vacuum divided by its phase velocity in the sample. On to `O=S(=O)([O-])[O-].[Na+].[Na+]` [sodium sulfate] + O, for which, in data set [1] (w1 = 0.3237), the viscosity came to 2.871 ± 0.29 mPa·s and the mass density is given as 1317.6 ± 3.7 kg/m3. In addition, the refractive index in data set [2] (w1 = 0.3237) is 1.3774 ± 0.0006.
For the compound `O=S(=O)([O-])[O-].[K+].[K+]` [potassium sulfate] + O, in data set [1] (w1 = 0.129), the viscosity is reported as 0.8181 ± 0.082 mPa·s and the mass density amounted to 1097.5 ± 2.3 kg/m3. Besides, the refractive index in data set [2] (w1 = 0.129) came out at 1.3466 ± 0.0006.
